Measured values: US20250034153A1, “TRIAZOLOPYRIMIDINES AS A2A / A2B INHIBITORS” (Incyte Corporation, priority 2019, published 2025)
pEC50, pKi: −log10 of the molar value.

Tests used:
Adenosine A2A = Adenosine A2A (Homo sapiens (Human), UniProt P29274); experiment: A2A Tag-lite HTRF assay (Example C); conditions: Tag-lite Adenosine A2A labeled cells, Red antagonist fluorescent ligand 12.5 nM, one-site competitive binding; read-out: A2A_Ki
Description: Example C. A2A Tag-Lite® HTRF Assay
Assays were conducted in black low volume 384-well polystyrene plates (Greiner 784076-25) in a final volume of 10 μL. Test compounds were first serially diluted in DMSO and 100 nl added to the plate wells before the addition of other reaction components. The final concentration of DMSO was 1%. Tag-lite® Adenosine A2A labeled cells (CisBio C1TT1A2A) were diluted 1:5 into Tag-lite buffer (CisBio LABMED) and spun 1200 g for 5 mins. The pellet was resuspended at a volume 10.4× the initial cell suspension volume in Tag-lite buffer, and Adenosine A2A Receptor Red antagonist fluorescent ligand (CisBio L0058RED) added at 12.5 nM final concentration. 10 ul of the cell and ligand mix was added to the assay wells and incubated at room temperature for 45 minutes before reading on a PHERAstar FS plate reader (BMG Labtech) with HTRF 337/620/665 optical module. Percent binding of the fluorescent ligand was calculated; where 100 nM of A2A antagonist control ZM 241385 (Tocris 1036) displaces the ligand 100% and 1% DMSO has 0% displacement. The % binding data versus the log of the inhibitor concentration was fitted to a one-site competitive binding model (GraphPad Prism version 7.02) where the ligand constant=12.5 nM and the ligand Kd=1.85 nM.

[1] = target: human adenosine A2B receptor (Homo sapiens (Human), UniProt P29275); experiment: Adenosine A2B receptor cyclic AMP GS assay (Example B); format: cell-based; conditions: HEK-293 cells expressing human A2B, agonist NECA 12 nM, cAMP accumulation (FRET); read-out: A2B_cAMP_EC50
Chain of human adenosine A2B receptor (P29275 whole entry): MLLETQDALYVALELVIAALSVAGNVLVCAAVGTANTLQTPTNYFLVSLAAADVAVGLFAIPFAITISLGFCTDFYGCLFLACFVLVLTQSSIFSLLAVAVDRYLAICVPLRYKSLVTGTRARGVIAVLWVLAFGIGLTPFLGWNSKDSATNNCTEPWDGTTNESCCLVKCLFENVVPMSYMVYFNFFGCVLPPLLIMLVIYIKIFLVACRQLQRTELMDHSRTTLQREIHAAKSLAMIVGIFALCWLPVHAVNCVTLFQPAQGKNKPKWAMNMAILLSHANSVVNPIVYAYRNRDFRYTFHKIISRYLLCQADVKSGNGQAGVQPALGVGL
Description: Example B. Adenosine A2B Receptor Cyclic AMP GS Assay
Stably transfected HEK-293 cells expressing the human adenosine A2B receptor (Perkin Elmer) were maintained in MEM culture medium with 10% FBS and 100 μg/ml Geneticin (Life Technologies). 18 to 24 hours prior to assay, geneticin was removed from culture. The cisbio cAMP-GS Dynamic kit utilizing the FRET (Fluorescence Resonance Energy Transfer) technology was used to measure cAMP accumulation in the cells. Compounds of the present disclosure at an appropriate concentration were mixed with 10000 cells/well in white 96 well half area plates (Perkin Elmer) for 30 min at RT gently shaking. Agonist, NECA (R&D Technologies) at 12 nM was added to each well for 60 min at RT gently shaking. Detection reagents, d2-labeled cAMP (acceptor) and anti-cAMP cryptate (donor) were added to each well for 60 min at RT gently shaking. Plates were read on Pherastar (BMG Labtech), fluorescence ratio 665/620 was calculated and EC50 determination was performed by fitting the curve of percent of control versus the log of the compound concentration using GraphPad Prism.

Chain of Adenosine A2A (P29274 whole entry): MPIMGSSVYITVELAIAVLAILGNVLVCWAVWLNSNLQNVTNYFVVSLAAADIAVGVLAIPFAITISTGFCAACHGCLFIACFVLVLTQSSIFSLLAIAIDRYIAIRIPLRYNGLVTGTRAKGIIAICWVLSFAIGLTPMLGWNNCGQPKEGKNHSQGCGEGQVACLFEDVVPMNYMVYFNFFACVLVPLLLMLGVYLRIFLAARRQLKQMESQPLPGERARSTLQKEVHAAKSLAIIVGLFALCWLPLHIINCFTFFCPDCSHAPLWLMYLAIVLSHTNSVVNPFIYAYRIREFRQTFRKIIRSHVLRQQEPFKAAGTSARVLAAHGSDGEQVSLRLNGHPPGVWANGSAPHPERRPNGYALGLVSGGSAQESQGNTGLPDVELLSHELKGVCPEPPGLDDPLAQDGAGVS

pKi (Adenosine A2A)	pEC50 [1]	SMILES
≥ 8.00	≥ 8.00	N#Cc1cccc(-c2nc(N)n3nc(Cn4nnnc4-c4cccnc4)nc3c2-c2ccncn2)c1 [Example 53, 3-(5-amino-2-((5-(pyridin-3-yl)-1H-tetrazol-1-yl)methyl)-8-(pyrimidin-4-yl)-[1,2,4]triazolo[1,5-c]pyrimidin-7-yl)benzonitrile]
≥ 8.00	≥ 8.00	N#Cc1cccc(-c2nc(N)n3nc(Cn4nnnc4-c4ccncc4)nc3c2-c2ccncn2)c1 [Example 54, 3-(5-amino-2-((5-(pyridin-4-yl)-1H-tetrazol-1-yl)methyl)-8-(pyrimidin-4-yl)-[1,2,4]triazolo[1,5-c]pyrimidin-7-yl)benzonitrile]
≥ 8.00	7.00 to 8.00	Cc1cccc(COc2nc3c(-c4ccc(=O)n(C)c4)c(-c4cccc(C#N)c4)nc(N)n3n2)n1 [Example 55, 3-(5-amino-8-(1-methyl-6-oxo-1,6-dihydropyridin-3-yl)-2-((6-methylpyridin-2-yl)methoxy)-[1,2,4]triazolo[1,5-c]pyrimidin-7-yl)benzonitrile]
≥ 8.00	7.00 to 8.00	Cc1cccc(COc2nc3c(-c4ccncc4C)c(-c4cccc(C#N)c4)nc(N)n3n2)n1 [Example 57, 3-(5-amino-2-((6-methylpyridin-2-yl)methoxy)-8-(3-methylpyridin-4-yl)-[1,2,4]triazolo[1,5-c]pyrimidin-7-yl)benzonitrile]
≥ 8.00	6.00 to 7.00	Cc1cc(-c2c(-c3cccc(C#N)c3)nc(N)n3nc(OCc4cccc(C)n4)nc23)cc(C)n1 [Example 58, 3-(5-amino-8-(2,6-dimethylpyridin-4-yl)-2-((6-methylpyridin-2-yl)methoxy)-[1,2,4]triazolo[1,5-c]pyrimidin-7-yl)benzonitrile]
≥ 8.00	7.00 to 8.00	COc1cc(-c2c(-c3cccc(C#N)c3)nc(N)n3nc(OCc4cccc(C)n4)nc23)cc(C)n1 [Example 59, 3-(5-amino-8-(2-methoxy-6-methylpyridin-4-yl)-2-((6-methylpyridin-2-yl)methoxy)-[1,2,4]triazolo[1,5-c]pyrimidin-7-yl)benzonitrile]
≥ 8.00	7.00 to 8.00	Cc1cccc(CNc2nc3c(-c4ccncn4)c(-c4cccc(C#N)c4)nc(N)n3n2)n1 [Example 65, 3-(5-amino-2-(((6-methylpyridin-2-yl)methyl)amino)-8-(pyrimidin-4-yl)-[1,2,4]triazolo[1,5-c]pyrimidin-7-yl)benzonitrile]
≥ 8.00	7.00 to 8.00	Cc1cccc(CNc2nc3c(-c4ccc(=O)n(C)n4)c(-c4cccc(C#N)c4)nc(N)n3n2)n1 [Example 67, 3-(5-amino-8-(1-methyl-6-oxo-1,6-dihydropyridazin-3-yl)-2-(((6-methylpyridin-2-yl)methyl)amino)-[1,2,4]triazolo[1,5-c]pyrimidin-7-yl)benzonitrile]
≥ 8.00	≥ 8.00	Cc1cccc(CNc2nc3c(-c4ccncc4C)c(-c4cccc(C#N)c4)nc(N)n3n2)n1 [Example 68, 3-(5-amino-2-(((6-methylpyridin-2-yl)methyl)amino)-8-(3-methylpyridin-4-yl)-[1,2,4]triazolo[1,5-c]pyrimidin-7-yl)benzonitrile]
≥ 8.00	< 6.00	Cc1cc(-c2c(-c3cccc(C#N)c3)nc(N)n3nc(NCc4cccc(C)n4)nc23)cc(C)n1 [Example 69, 3-(5-amino-8-(2,6-dimethylpyridin-4-yl)-2-(((6-methylpyridin-2-yl)methyl)amino)-[1,2,4]triazolo[1,5-c]pyrimidin-7-yl)benzonitrile]
≥ 8.00	6.00 to 7.00	COc1cc(-c2c(-c3cccc(C#N)c3)nc(N)n3nc(NCc4cccc(C)n4)nc23)cc(C)n1 [Example 70, 3-(5-amino-8-(2-methoxy-6-methylpyridin-4-yl)-2-(((6-methylpyridin-2-yl)methyl)amino)-[1,2,4]triazolo[1,5-c]pyrimidin-7-yl)benzonitrile]
